These results are taken from patent US20210340178A1, “NONAPEPTIDE PREVENTING INCREASED HYPERPERMEABILITY OF VASCULAR ENDOTHELIUM” (FEDERALNOYE GOSUDARSTVENNOE BUDGETNOE UCHREZHDENIE …, priority 2018, published 2021).

Each structure is given as a SMILES string. Entries after “also recorded” stand apart in the source; their conditions may differ. Like-named read-outs stand apart in the source and are kept apart here. Non-standard residues stand in square brackets, D forms with d. Residues, ends and D or L forms follow the SMILES beside them. Bounds are passed on as bounds.

Series [1] in a line: Peptide half-lives in human plasma in vitro (1H-NMR spectroscopy). The format is in vitro ADME. To be noted: for half-life: human, plasma. As to the method:
Whole blood (100 mL) was collected from healthy donors to 50-mL tubes containing 5 mL of a preservative (130 mM citrate in phosphate buffered saline (PBS), pH 7.4). The blood was incubated for 15-20 min at room temperature followed by centrifugation at 1500 g for 15 min at 18° C. The supernatants were transferred to clear tubes and centrifuged as above. Dry NaBr was added to the plasma (280 mg per 1 mL of plasma). After dissolution of NaBr, the plasma (approx. 30 mL) was transferred to centrifuge tubes (Type 45Ti rotor, Beckman, USA) and layered with 20 mL of a solution (specific mass of […]), which was prepared as follows—11.42 g of NaCl and 100 mg of ethylenediaminetetraacetic acid (EDTA) were dissolved in distilled water in a final volume of 1 L (pH 7.4) and 281.44 g of NaBr was added. The plasma was centrifuged at 40,000 rpm for 48 hrs. The upper dark-yellow fraction containing lipoproteins and the colorless buffer fraction were discarded leaving approx. 1-cm high buffer above the apparent plasma border. Portions of plasma obtained from one donor were pooled and dialyzed for 36 hrs against 4 L of PSB free of Ca^2+ and Mg^2+(MP Biomedicals, USA) in dialysis bags with 12-14 kDa pore sizes. The dialysis procedure was repeated twice with fresh buffer changed every 24 hrs. After the dialysis, the plasma was centrifuged at 25,000 rpm (Type 45Ti rotor, Beckman, USA) for 15 min at 4° C. The supernatant fraction was collected and lyophilized. The dry matter was dissolved in D2O in a final volume equal to the plasma volume before NaBr was added, lyophilized again, dissolved in the same volume of D2O, and stored in 1-mL aliquots at −20° C. before use.
^1H-NMR spectroscopy was employed to analyze relative degradation of PIK7 (the claimed peptide) and MLC11-19 (the structural analogue) in human plasma. ^1H-NMR spectroscopy allows simultaneous direct monitoring the amounts of original full-length peptide and its fragments during the course of enzymatic hydrolysis (Isakova et al., 1986). Stability of a peptide, its degradation pathway(s) and a half-life estimate are available from a comparison of spectra obtained at different time points after the addition of a peptide to plasma. ^1H-NMR spectra were obtained using a WM-500 spectrometer (Bruker, Germany) at 37° C. Chemical shifts in ^1H-NMR spectra were measured relative to an internal standard (2,2-dimethyl-2-silapentane-5-sulfonate sodium salt). The signals were referenced by the double-resonance method. The resonances from peptide protons were identified by the differential spectroscopy method, i.e. the spectrum of blood plasma was subtracted from each spectrum obtained in the presence of peptide of interest. Peptide concentrations were 3 mg/ml.
These indicate the peptide N-terminus degradation. […] Therefore, the claimed peptide has an increased life-span in plasma that allows for long-lasting maintenance of its effective concentrations necessary to decrease the endothelial hyperpermeability under emergency conditions. Moreover, an increased life-time allows attaining the desired therapeutic effect with lower (as compared to homologues) peptide concentrations.

Series [2] deals with EA.hy926 endothelial cell monolayer. In words: Thrombin-mediated FITC-dextran permeability through endothelial cell monolayer. The format is cell-based. The conditions noted are these: peptide 100 μM, 60 min preincubation; thrombin 100 nM; 70 kDa FITC-dextran. As to the method:
FIG. 3. The thrombin-mediated FITC-dextran permeability through the EA.hy926 endothelial cell monolayer in the presence of myosin light chain kinase peptide inhibitors. Thrombin (100 nM) was added at 0 min, the cells were preincubated for 60 min with MLCK peptide inhibitors (100 μM). Data are presented as mean±SD, n=5. p<0.05 for all data points within the 20-180 min time course range as compared to the thrombin-stimulated control.
Effects of the claimed peptide (PIK7), the prototype (PIK2), and the analogue (MLC11-19) on the endothelial permeability was assayed in a model of FITC-dextran diffusion through the endothelial monolayer as described in Example 3.
Cells were grown in 24-well plates (Greiner Bio-one, Austria) equipped with special inserts to form inner (upper) chambers with a porous bottom (the pore diameter of 0.4 μm, pore density of 10^8/cm^2) in DMEM until monolayer was formed (3-4 days). Successful monolayer was checked by measuring FITC-dextran diffusion for 1 hour through inserts with cell monolayers vs inserts without cells (‘blank’ inserts). Experiments were performed in triplicates when tight monolayers were formed. On the day of experiment, the cells were deprived for 1 h in DMEM supplemented with MLCK inhibitors or without inhibitors (control). After deprivation, FITC-dextran was added to the upper compartment to a final concentration of 0.05 mg/ml. In 30 and 60 min, a 10-μ1 aliquot was withdrawn from the lower compartment and mixed with 100 μl phosphate buffered saline pH 7.3 in a 96-well plate to estimate the endothelial monolayer baseline permeability. […] During the next 3 hrs, every 30 min, aliquots were taken from the lower compartment, and intensity of FITC fluorescence was measured using a Victor 3X plate reader (Perkin Elmer, USA) to plot the dynamics of the FITC fluorescence changes.
As shown, 100 nM thrombin induces the endothelial hyperpermeability response as reflected by an increase in 70 kDa FITC-dextran diffusion through the endothelial monolayer and an incremental increase in the fluorescence in the lower compartment of the diffusion chamber. […]

The nature of series [3]: Acute toxicity in mice, single injection. The format is in vivo. The conditions noted are these: mouse, in vivo; mice, Table 3; read-out: Toxicity LD50 in mice. As for the experimental part:
(§1) The study was conducted in 82 BALB/c mice (both males and females, body weight 18-24 g) obtained from the animal facility of the Scientific Center for Biomedical Technologies of the Federal Medico-Biological Agency of the Russian Federation (SCBMT). The animals were certified and otherwise healthy. The animals were kept in T-3 cages (5-10 animals per cage) with artificial 12 hrs light-dark cycles and 16× per hour forced air ventilation, temperature of 20-22° C. and 50-65% humidity on wood chips sterilized by hot air. The animals had free access to drinking water and PK-120-1 mouse cubes (GOST P50258-92; Laboratorsnab LLC, Russia).
(§2) PIK2 and PIK7 peptides were dissolved in water and administered to mice as a single intraperitoneal injection. The animals were followed for 14 days after peptide injections. An increasing dosage scheme was applied where each tested dose surpassed the previous dose by 50%. The lowest dose of the active substance was determined that caused animal death.

In series [4] the test system is BALB/c mice. The experiment in a line: Acute toxicity in mice, single injection. The format is in vivo. As for the experimental part:
as §1, §2

For series [5] the following is noted: rabbit, in vivo.
Description: (§3) PIK2 dose of 5 mg/kg was calculated individually for each rabbit and administered into marginal ear vein in a final volume of 1.7-1.9 mL in sterile physiological saline. Stock concentration of the tested substance was 10 mg/mL.
(§4) During the 24-hrs testing period, the overall health status and behavior were monitored (appetite, motion activity, hair coat condition).
(§5) Before injection of test substances (baseline) and 4 hrs and 24 hrs after the injection, the following parameters were tested in whole venous blood samples (3.0-3.5 mL) collected from a marginal ear vein red blood cell (RBC) count, hematocrit, hemoglobin level, mean RBC volume, mean corpuscular hemoglobin, total leukocyte, lymphocyte, and granulocyte counts and their percentages, platelet count, and mean platelet volume. In parallel, the following biochemical parameters were measured in serum total protein, bilirubin, urea, creatinine, glucose, total cholesterol, triglycerides, and activities of alkaline phosphatase, lactate dehydrogenase, aspartate aminotransferase, and alanine aminotransferase. Blood cell count was performed using an Abacus junior vet (Austria) hematological cell counter; biochemical studies were performed using a Targa-2000 (Italy) instrument.
In series [6] the test system is Chinchilla rabbits. In words: Tolerance of a single intravenous injection in Chinchilla rabbits. To be noted: i.v. 10 mg/kg.
Description: as §3, §4, §5

As to `C[C@H](NC(=O)[C@H](C)NC(=O)[C@H](CCCNC(=N)N)NC(=O)[C@@H](CCCCN)NC(=O)[C@@H](N)CCCCN)C(=O)N[C@@H](CCCNC(=N)N)C(=O)N[C@@H](C)C(=O)N[C@H](C(=O)N[C@@H](CO)C(N)=O)[C@@H](C)O` [PIK7, H-Lys-D-Lys-Arg-Ala-Ala-Arg-Ala-Thr-Ser-NH2] (H-K[dK]RAARATS-NH2), in series [1] (1H-NMR, 37° C., peptide 3 mg/ml), the “T1/2, half-life in human plasma in vitro” value is given as no less than 320 min. Also, in series [1] (human plasma in vitro), the “resistance to proteolysis as compared to the structural analogue (MLC11-19)” value was “by one order of magnitude”. Moreover, the half-life in series [1] (1H-NMR, 37° C., peptide 3 mg/ml (FIG. 2), read-out: half-life in human plasma) is no less than 420 min; in series [1] (1H-NMR, 37° C., peptide 3 mg/ml, read-out: T1/2, half-life in human plasma in vitro), greater than 320 min. Moreover, the “effect on thrombin-induced FITC-dextran hyperpermeability” value in series [2] is “completely abolished the FITC-dextran hyperpermeability; also recorded: effectively abolished FITC-dextran hyperpermeability”. Further, the LD50 in series [3] was greater than 1000 mg/kg; in series [5], greater than 10 mg/kg. For the same compound, the “lowest lethal dose, fold higher than with PIK2” value in series [4] (BALB/c mice, single intraperitoneal injection) came out at 47 fold. Further, the “lowest dose of the active substance that caused animal death” value in series [4] (BALB/c mice, single intraperitoneal injection, followed 14 days) turned out to be 1274 mg/kg. Also, the “signs after a toxic dose” value in series [4] (mice, single intraperitoneal injection of a toxic dose) was “movement retardation and death within the following 24 hrs”. Besides, the “other standard hematological and biochemical parameters” value in series [6] is “not altered”. Also, in series [6] (24-hrs testing period), the “overall health status and behavior” value was “no significant changes either in the overall health status or behavior”. Besides, the triglyceride levels in series [6] (24 hrs after administration, baseline 1.63 mmol/L) amounted to 2.79 mmol/L. For the same compound, the hematocrit in series [6] (24 hrs after administration, baseline 38.81±1.49%) is given as 35.90±0.18%. In series [6] (24 hrs after administration, baseline 73.6±2.58 g/L), this compound yielded a total plasma protein of 69.2 ± 0.47 g/L. In addition, in series [6] (24 hrs after administration, baseline 131±5 g/L), the hemoglobin level is 120 ± 7 g/L. In addition, the survival result in series [6] (group of 4) was “all animals survived”.
